US8853394B2, “Pharmacokinetically improved compounds” (Surface Logix, Inc., priority 2006, dated 2014)
Converted amounts (≈) assume the structure as drawn. Like-named read-outs stand apart in the source and are kept apart here.

How the values were obtained:
Solubility = format: physicochemical
PDE-1 = PDE-1 inhibition; format: biochemical
[1] = T1/2 in rat liver microsomes; format: in vitro ADME
PAMPA permeability = format: in vitro ADME; settings: Hex, read-out: PAMPA Hex
PDE-6 bovine = target: T1, PDE-6 bovine (Bos taurus, UniProt P11541+P23439); test: PDE-6 bovine inhibition; format: biochemical
T1 sequence (P11541 2-856 limits assumed): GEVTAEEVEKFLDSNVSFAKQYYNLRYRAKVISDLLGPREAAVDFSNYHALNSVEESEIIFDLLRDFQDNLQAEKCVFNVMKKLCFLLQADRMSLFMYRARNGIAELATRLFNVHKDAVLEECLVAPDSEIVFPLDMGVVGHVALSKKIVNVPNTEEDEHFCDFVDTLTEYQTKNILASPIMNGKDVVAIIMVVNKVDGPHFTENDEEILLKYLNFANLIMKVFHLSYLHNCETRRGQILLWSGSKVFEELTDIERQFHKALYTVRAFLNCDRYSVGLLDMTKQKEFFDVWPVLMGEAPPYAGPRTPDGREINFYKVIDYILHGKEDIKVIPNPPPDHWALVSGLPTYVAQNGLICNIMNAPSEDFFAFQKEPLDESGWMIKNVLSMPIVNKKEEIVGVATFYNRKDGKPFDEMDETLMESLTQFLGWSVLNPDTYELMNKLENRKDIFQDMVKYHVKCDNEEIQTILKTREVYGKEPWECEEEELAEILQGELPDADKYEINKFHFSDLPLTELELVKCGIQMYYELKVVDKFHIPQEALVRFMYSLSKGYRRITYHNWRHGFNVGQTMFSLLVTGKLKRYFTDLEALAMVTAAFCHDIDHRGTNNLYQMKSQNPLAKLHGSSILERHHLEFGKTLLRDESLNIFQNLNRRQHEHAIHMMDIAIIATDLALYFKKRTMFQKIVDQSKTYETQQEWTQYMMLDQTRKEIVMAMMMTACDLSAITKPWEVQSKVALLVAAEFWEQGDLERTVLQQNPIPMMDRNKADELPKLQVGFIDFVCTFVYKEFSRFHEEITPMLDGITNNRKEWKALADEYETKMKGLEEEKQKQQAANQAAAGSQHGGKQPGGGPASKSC
T1 sequence (P23439 2-850 limits assumed): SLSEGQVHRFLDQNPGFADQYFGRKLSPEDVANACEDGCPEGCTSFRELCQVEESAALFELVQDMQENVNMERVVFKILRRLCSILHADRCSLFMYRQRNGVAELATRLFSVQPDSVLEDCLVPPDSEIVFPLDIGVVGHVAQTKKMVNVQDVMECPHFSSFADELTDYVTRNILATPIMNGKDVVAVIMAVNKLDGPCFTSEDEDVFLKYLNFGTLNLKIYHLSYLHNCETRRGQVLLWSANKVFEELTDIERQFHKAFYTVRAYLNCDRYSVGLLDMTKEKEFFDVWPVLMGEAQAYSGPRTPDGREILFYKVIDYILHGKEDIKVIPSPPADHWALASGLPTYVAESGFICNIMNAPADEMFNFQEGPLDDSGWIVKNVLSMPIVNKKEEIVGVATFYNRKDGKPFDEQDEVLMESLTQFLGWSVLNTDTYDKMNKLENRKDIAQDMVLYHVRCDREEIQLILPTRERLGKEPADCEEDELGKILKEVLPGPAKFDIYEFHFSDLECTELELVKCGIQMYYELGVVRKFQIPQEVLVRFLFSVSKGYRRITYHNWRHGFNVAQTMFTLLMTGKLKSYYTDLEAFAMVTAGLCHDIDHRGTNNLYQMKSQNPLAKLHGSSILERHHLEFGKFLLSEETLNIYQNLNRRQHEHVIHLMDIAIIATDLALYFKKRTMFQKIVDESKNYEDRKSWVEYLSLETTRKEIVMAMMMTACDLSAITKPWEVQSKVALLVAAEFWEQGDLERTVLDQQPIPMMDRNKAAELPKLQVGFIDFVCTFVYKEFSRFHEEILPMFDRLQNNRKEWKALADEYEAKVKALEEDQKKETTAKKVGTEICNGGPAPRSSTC

PDE5 = PDE5 (Homo sapiens, UniProt O76074); test: PDE-5 human inhibition; format: biochemical
[2] = T1/2 in human liver microsomes; format: in vitro ADME
[3] = Chronic Cytoxicity (mouse 3T3); format: cell-based; settings: 3T3 cells
PDE-3 = PDE-3 inhibition; format: biochemical
Caco-2 permeability = format: in vitro ADME; settings: human; for Papp A→B: AtoB; for Papp B→A: BtoA
Source text: Several model systems are available, employing monolayers of various cell types, for evaluation of active transport of pharmaceutically active substances. For example, monolayers of Caco-2 intestinal epithelial cells can be used to evaluate active transport of substances between the intestine and the bloodstream. When plated on a surface which allows the flow of material from apical to basolateral and vice versa, such cells form a biological membrane which can be used to simulate physiological absorption and bioavailability. In another example, mouse brain capillary endothelial cell (MBEC) lines have been established to evaluate active transport in and out of the central nervous system. Another example of such cells is HT29 human colon carcinoma cells. Further, monolayers expressing particular transporter proteins can be established using transfected cells. For example, Sasaki et al (2002) J. Biol. Chem. 8:6497 used a double-transfected Madin-Darby canine kidney cell monolayer to study transport of organic anions.

PDE-4 human = PDE-4 human inhibition; format: biochemical
Protein Binding = format: in vitro ADME; settings: human, human serum components
Procedure: In general, protein binding is assessed by measuring the capacity of molecules of the invention to bind to one or more human serum components or mimics thereof. In one embodiment, suitable functional residues may be identified by screening of surfaces comprising such residues for their ability to resist adsorption of serum components, including, but not limited to serum proteins, and preferably human serum proteins. Candidate residues can be screened directly by attaching them to a solid support and testing the support for protein resistance. Alternatively, candidate residues are incorporated into, or linked to molecules of pharmaceutical interest. Such compounds may be synthesized on a solid support, or bound to a solid support after synthesis. In a non-limiting example of a direct binding assay, immobilized candidate functional residues or molecules incorporating such residues are tested for their ability to bind serum components. The serum components can be labeled with a signaling moiety for detection, or a labeled secondary reagent that binds to such serum components can be used.
A direct binding analysis can also be preformed in liquid phase. For example, test compounds can be mixed with one or more serum components in liquid phase, and the unbound molecules determined.

Non-Spec Binding = format: in vitro ADME
[4] = pH 2.7, aqueous buffer, read-out: Solubility (ug/mL) pH 2.7
[5] = pH 7.4, aqueous buffer, read-out: Solubility (ug/mL) pH 7.4

Compound | solubility (Solubility; [4]) | solubility (Solubility; [5]) | IC50 (PDE-1) | half-life [1] | Papp (PAMPA permeability) | IC50 (PDE-6 bovine) | IC50 (PDE5) | half-life [2] | GI50 [3] | LC50 (50% lethal concentration) [3] | IC50 (PDE-3) | Papp A→B (Caco-2 permeability) | Papp B→A (Caco-2 permeability) | IC50 (PDE-4 human) | fraction unbound (Protein Binding) | Non-Spec Binding (%) (Non-Spec Binding)
CCCc1nc(C)c2c(=O)[nH]c(-c3cc(S(=O)(=O)N4CCN(C(=O)CN(C)C)CC4)ccc3OCC)nn12 [Compound 1] | 124 µg/mL (≈ 228 µM) | 111 µg/mL (≈ 204 µM) | 95 nM | 45.4 min | ~1.06 ×10⁻⁶ cm/s | 4.4 nM | 0.14 nM | 34 min |  |  |  |  |  |  |  | 
CCCc1nc(C)c2c(=O)[nH]c(-c3cc(S(=O)(=O)N4CCC[C@H]4CN4CCCC4)ccc3OCC)nn12.Cl [Compound 11] | > 50 µg/mL | > 50 µg/mL | 48 nM |  | 3.86 ×10⁻⁶ cm/s | 23 nM | 1 nM |  | 25000 nM | > 100000 nM | 2100 nM | 6.87 ×10⁻⁶ cm/s | 30.5 ×10⁻⁶ cm/s |  |  | 
CCCc1nc(C)c2c(=O)[nH]c(-c3cc(S(=O)(=O)NCCCN4CCCC4=O)ccc3OCC)nn12 [Compound 13] |  |  | 3.5 nM | 16.6 min |  | 0.645 nM | 0.051 nM | 12.7 min |  |  | 777 nM | 10.6 ×10⁻⁶ cm/s | 36.7 ×10⁻⁶ cm/s | 373 nM | 0.0885 | 5.95%
CCCc1nc(C)c2c(=O)[nH]c(-c3cc(S(=O)(=O)N4CCN(CCN5CCOCC5)CC4)ccc3OCC)nn12 [Compound 15] | 115 µg/mL (≈ 200 µM) | 110 µg/mL (≈ 192 µM) | 46.3 nM | 34 min |  | 1.09 nM | 0.16 nM | 30.8 min |  |  | 2230 nM | 8.45 ×10⁻⁶ cm/s | 40.6 ×10⁻⁶ cm/s | 3690 nM | 0.155 | 8.78%
CCCc1nc(C)c2c(=O)[nH]c(-c3cc(S(=O)(=O)N4CCN(CC(=O)N(C)C)CC4)ccc3OCC)nn12 [Compound 16] |  |  | 17 nM | 59.9 min |  | 0.365 nM | 0.04 nM | > 60 min |  |  | 941 nM | 2.65 ×10⁻⁶ cm/s | 45.4 ×10⁻⁶ cm/s | 963 nM | 0.11 | 9.72%
CCCc1nc(C)c2c(=O)[nH]c(-c3cc(S(=O)(=O)N(C)CC(OC)OC)ccc3OCC)nn12 [Compound 17] |  |  | 2.6 nM | 6.83 min |  | 0.86 nM | 0.066 nM | 1.08 min |  |  | 391 nM | 40.5 ×10⁻⁶ cm/s | 39.4 ×10⁻⁶ cm/s | 1100 nM | 0.016 | 36.5%
CCCc1nc(C)c2c(=O)[nH]c(-c3cc(S(=O)(=O)N4CCN(CC(=O)NC(C)C)CC4)ccc3OCC)nn12 [Compound 18] |  |  | 16 nM | 33 min |  | 0.64 nM | 0.037 nM | 44.1 min |  |  | 507 nM | 4.11 ×10⁻⁶ cm/s | 46.3 ×10⁻⁶ cm/s | 1300 nM | 0.0945 | 22.15%
CCCc1nc(C)c2c(=O)[nH]c(-c3cc(S(=O)(=O)N4CCN(C(=O)C5CCCO5)CC4)ccc3OCC)nn12 (centres unmarked) [Compound 19] |  |  | 2.55 nM | 24 min |  | 0.685 nM | 0.056 nM | 22.4 min |  |  | 1200 nM | 7.86 ×10⁻⁶ cm/s | 44.8 ×10⁻⁶ cm/s | 686 nM | 0.104 | 15.5%
CCCc1nn(C)c2c(=O)[nH]c(-c3cc(S(=O)(=O)N4CCN(CCN5CCOCC5)CC4)ccc3OCC)nc12 [Compound 21] | 112 µg/mL (≈ 194 µM) | 26 µg/mL (≈ 45.3 µM) | 76 nM | 34 min |  | 12 nM | 1.5 nM | 47 min |  |  | 9600 nM |  |  | 3700 nM | 0.071 | 68.4%
